# Test results: US20240132457A1, “3-(2-(BENZO[D]THIAZOL-2-YL)-2-(PHENYLSUFONAMIDO)ETHYL)BENZIMIDAMIDE DERIVATIVES AND RELATED COMPOUNDS AS TMPRSS2 INHIBITORS FOR THE TREATMENT OF VIRAL INFECTIONS” (INTEGERBIO, INC., priority 2020, published 2024)
# Experiments:
# Type in all cases: biochemical
# [1] = target: T1, Human TMPRSS2-(AA 106-492) (Homo sapiens, UniProt O15393); experiment: TMPRSS2 Assay 2 (Example 42), 384-well primary assay; conditions: TMPRSS2 20 nM, substrate 40 μM, 150 min at room temperature
# T1 construct: Human TMPRSS2-(AA 106-492)-; purchased CusaBio CSB-YP023924HU; host or cells: yeast
# T1 sequence (O15393 106-492): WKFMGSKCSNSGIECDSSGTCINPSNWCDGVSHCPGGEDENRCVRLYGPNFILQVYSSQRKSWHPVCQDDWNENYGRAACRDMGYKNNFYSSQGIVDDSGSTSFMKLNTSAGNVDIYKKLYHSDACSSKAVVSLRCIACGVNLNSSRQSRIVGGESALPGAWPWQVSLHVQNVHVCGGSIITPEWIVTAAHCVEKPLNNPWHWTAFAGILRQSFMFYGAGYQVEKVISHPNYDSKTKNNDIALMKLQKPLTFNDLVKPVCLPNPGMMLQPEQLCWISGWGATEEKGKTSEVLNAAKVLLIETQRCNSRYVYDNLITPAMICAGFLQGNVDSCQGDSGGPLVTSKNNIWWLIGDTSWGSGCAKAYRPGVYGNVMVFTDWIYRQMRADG
# Protocol: The concentration-response testing of compounds was in primary, readout counter as 11-point compound dilution series in 384-well assay plate format in triplicates (n=3). The compound dilutions was prepared in an intermediate plate (spot volume=150 nL), and then the assay reagents were prepared. After preparing the intermediate plates containing the assay reagents for the transfer into the assay plate using the Selma 384/25 μl pipettor, the assay reagents were transferred into the assay plate.
# The resulting plate was centrifuged at g=290 for 30 s, and then the plate was incubated at room temperature for 150 minutes. 10 μl 2.5× of stop reagent (50 mM acetic acid) (Selma) was added, and then the plate was read on Safire e.
# The materials, reagents, and equipment used for the assay is described in Table 3, Table 4, Table 5, and Table 6.
# For the primary assay, the assay buffer (50 mM Tris-HCL, 150 mM NaCl, 0.01% Tween®20, pH8.0) was prepared using the stocks as described in Table 7.
# The enzyme dilution was prepared as described in Table 8.
# The final assay concentration was referred to 15 μl assay volume. Using a “greiner-dilution” as intermediate plate, the according wells were filled ([…]). The volume was adjusted using another plate type. Substrate dilution was prepared as described in Table 9.
# The final assay concentration was referred to 15 μl assay volume. The DMSO concentration of the substrate working dilution was 1.2%. Using a “greiner-dilution” as intermediate plate, the according wells were filled (23 μl). Using another plate type, the volume was adjusted.
# The compounds were dissolved in DM50. 150 nl of the compound were transferred into the assay plate prior to addition of the assay components (final assay volume of 15 μl).
# The final concentration of the tool compound (low control) in the assay (assay volume l) was 0.8 μM. For the High control 5 μl/well […] was filled in column 6. The readout settings are described in Table 14. The readout was performed utilizing Safire^2 Microplate Reader. […]
# [2] = target: Kallikrein 1 (Homo sapiens, UniProt P06870); experiment: Non-TMPRSS2 protease panel: Kallikrein 1; conditions: 10-dose, 3-fold from 10 μM
# Sequence of Kallikrein 1 (P06870 25-262): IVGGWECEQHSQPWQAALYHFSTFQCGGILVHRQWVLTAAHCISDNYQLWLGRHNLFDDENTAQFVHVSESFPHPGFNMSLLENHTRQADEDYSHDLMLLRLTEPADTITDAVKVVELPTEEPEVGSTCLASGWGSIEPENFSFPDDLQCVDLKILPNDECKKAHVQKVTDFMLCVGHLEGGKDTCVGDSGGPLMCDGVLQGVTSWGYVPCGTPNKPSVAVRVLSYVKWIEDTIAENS
# Protocol: (§1) Biochemical activity of compound 1 (racemic mixture, batch 1), compound 3 (racemic), compound 11, and compound 2 (enantiomer 1, batch 1) in proteases indicated in Table 21, Table 22, Table 23, and Table 24, respectively, were measured by testing the compounds in a 10-dose IC50 with a 3-fold series dilution starting at 10 μM against the proteases. The protease activities were monitored as a time-course measurement of the increase in fluorescence signal from fluorescently-labeled peptide substrate, and initial linear portion of slope (signal/min) was analyzed. The curve fits were performed when the activities at the highest concentration of compounds were less than 65%.
# [3] = target: T2, Kallikrein 5 (Homo sapiens, UniProt Q9Y337); experiment: Non-TMPRSS2 protease panel: Kallikrein 5; conditions: 10-dose, 3-fold from 10 μM
# T2 sequence (Q9Y337 23-293): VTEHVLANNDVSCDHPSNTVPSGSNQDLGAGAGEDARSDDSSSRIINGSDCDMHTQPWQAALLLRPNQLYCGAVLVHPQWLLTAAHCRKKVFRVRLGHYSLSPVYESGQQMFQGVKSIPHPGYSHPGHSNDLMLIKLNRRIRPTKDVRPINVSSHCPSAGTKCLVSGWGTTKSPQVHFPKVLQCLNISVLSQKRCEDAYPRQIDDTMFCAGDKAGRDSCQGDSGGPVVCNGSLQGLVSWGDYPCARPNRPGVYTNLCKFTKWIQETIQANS
# Protocol: as §1
# [4] = target: Kallikrein 7 (Homo sapiens, UniProt P49862); experiment: Non-TMPRSS2 protease panel: Kallikrein 7; conditions: 10-dose, 3-fold from 10 μM
# Sequence of Kallikrein 7 (P49862 30-253): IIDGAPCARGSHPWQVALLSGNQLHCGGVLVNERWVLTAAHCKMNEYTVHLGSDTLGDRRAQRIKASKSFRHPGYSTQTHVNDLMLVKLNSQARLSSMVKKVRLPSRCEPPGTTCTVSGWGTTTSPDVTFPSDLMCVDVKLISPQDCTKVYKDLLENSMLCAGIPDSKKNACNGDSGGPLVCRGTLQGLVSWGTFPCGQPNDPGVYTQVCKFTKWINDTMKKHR
# Protocol: as §1
# [5] = target: T3, Kallikrein 13 (Homo sapiens, UniProt Q9UKR3); experiment: Non-TMPRSS2 protease panel: Kallikrein 13; conditions: 10-dose, 3-fold from 10 μM
# T3 sequence (Q9UKR3 17-277): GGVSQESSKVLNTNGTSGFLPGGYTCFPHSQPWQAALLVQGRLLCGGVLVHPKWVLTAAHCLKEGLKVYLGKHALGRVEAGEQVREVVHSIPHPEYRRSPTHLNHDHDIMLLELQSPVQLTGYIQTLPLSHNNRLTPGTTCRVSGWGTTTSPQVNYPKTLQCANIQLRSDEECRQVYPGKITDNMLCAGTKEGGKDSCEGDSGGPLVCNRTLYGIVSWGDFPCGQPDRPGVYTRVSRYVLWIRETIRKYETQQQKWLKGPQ
# Protocol: as §1
# [6] = target: T4, MMP 2 (Homo sapiens, UniProt P08253); experiment: Non-TMPRSS2 protease panel: MMP 2; conditions: 10-dose, 3-fold from 10 μM
# T4 sequence (P08253 110-660): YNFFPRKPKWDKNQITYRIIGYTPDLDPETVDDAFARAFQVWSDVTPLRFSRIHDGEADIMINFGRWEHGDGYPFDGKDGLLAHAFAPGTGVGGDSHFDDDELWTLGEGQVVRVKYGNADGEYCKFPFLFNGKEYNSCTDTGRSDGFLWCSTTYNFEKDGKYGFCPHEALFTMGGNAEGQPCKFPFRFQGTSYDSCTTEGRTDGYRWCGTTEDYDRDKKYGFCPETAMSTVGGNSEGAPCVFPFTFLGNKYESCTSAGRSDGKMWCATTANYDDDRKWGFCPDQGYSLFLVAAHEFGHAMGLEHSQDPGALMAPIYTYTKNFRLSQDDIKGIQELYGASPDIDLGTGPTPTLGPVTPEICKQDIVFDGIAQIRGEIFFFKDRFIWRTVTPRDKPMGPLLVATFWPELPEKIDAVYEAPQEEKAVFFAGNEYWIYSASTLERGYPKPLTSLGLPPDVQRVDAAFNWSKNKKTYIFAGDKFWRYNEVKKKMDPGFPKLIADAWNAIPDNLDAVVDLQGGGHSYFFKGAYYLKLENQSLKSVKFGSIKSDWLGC
# Protocol: as §1
Compound,IC50 [1] [µM],IC50 [2] [µM],IC50 [3] [µM],IC50 [4] [µM],IC50 [5] [µM],IC50 [6] [µM]
"N=C(N)c1cccc(C[C@H](NS(=O)(=O)c2ccccc2)c2nnco2)c1 (single isomer, unassigned) [Compound 2 (enantiomer 1, batch 1), 3-[2-Benzenesulfonamido-2-(1,3,4-oxadiazol-2-yl)ethyl]benzene-1-carboximidamide]",> 30,> 10,> 10,> 10,> 10,> 10
"COc1ccc2nc(C(Cc3cccc(C(=N)N)c3)NS(=O)(=O)c3ccccc3)sc2c1 (centres unmarked) [Compound 11, 3-[2-Benzenesulfonamido-2-(6-methoxy-1,3-benzothiazol-2-yl)ethyl]benzene-1-carboximidamide]",,< 10,> 10,> 10,> 10,> 10
"N=C(N)c1cccc(CC(NS(=O)(=O)c2ccccc2)c2nc3ccccc3s2)c1 (racemic) [1 (racemic mixture, batch 1), 3-[2-Benzenesulfonamido-2-(1,3-benzothiazol-2-yl)ethyl]benzene-1-carboximidamide]",< 30,< 10,> 10,> 10,> 10,> 10
"N=C(N)c1cccc(CC(NS(=O)(=O)c2cccc(-c3ccc(Cl)cc3Cl)c2)c2nc3ccccc3s2)c1 (racemic) [3 (racemic), 3-[2-(1,3-Benzothiazol-2-yl)-2-{2′,4′-dichloro-[1,1′-biphenyl]-3-sulfonamido}ethyl]benzene-1-carboximidamide]",> 30,> 10,> 10,> 10,> 10,< 10
